Assay results published in patent publication EP2128158A1, “Heterocyclic cyclopropyl-substituted FXR binding compounds” (Phenex Pharmaceuticals AG, priority 2008, dated 2009).
Read-outs that look alike come from different tables or passages of the source.

Tests used:
full length human FXR = target: T1, full length human FXR (Homo sapiens, UniProt Q96RI1); experiment: Direct reporter (DR) gene assay in stably transfected HEK293 cells (D2IV3), luciferase; format: cell-based
T1 construct: The full length human FXR (NM_005123) was cloned into pTRexDest30; expressed in transfected cells
T1 sequence (Q96RI1 1-472 isoform Q96RI1-2): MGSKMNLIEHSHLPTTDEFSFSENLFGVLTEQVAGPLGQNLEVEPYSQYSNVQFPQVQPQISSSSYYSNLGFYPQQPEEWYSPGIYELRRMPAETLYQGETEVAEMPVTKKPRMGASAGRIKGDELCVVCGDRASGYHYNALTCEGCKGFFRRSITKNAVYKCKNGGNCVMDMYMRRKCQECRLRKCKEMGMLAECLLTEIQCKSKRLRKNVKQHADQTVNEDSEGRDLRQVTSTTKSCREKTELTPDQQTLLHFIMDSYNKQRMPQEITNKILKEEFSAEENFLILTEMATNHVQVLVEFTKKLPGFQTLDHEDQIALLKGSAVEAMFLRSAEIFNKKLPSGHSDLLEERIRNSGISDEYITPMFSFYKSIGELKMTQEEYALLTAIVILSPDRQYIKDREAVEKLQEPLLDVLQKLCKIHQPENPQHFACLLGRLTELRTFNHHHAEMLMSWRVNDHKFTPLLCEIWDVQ
Source text: In the direct reporter gene assay, HEK293 cells, obtained from DSMZ (German Collection of Microorganisms and Cell Cultures, Braunschweig, Germany) were stably transfected with pTRexDest30 (Invitrogen) derivative pTRexDest30-hFXR and pGL2promoter (Promega) derivative pGL2promoter-2xIBABP-RE. The full length human FXR (NM_005123) was cloned into pTRexDest30 according to the manufacturer protocol for the Gateway system (Invitrogen). The FXR response elements cccaGGGTGAaTAACCTcggggctctgtccctccaatcccaGGGTGAaTAACCTcggg were derived from the human IBABP-P promoter (Grober et al. 1999, JBC, 174, pp.29749-29754) and cloned into pGL2promoter. […] For the direct reporter gene assays, D2IV3 cells were grown in MEM with L-Glutamine and Earle's BSS supplemented with 10% fetal bovine serum, 0.1mM nonessential amino acids, 1mM sodium pyruvate, and 100units Penicilin/[…] per ml at 37°C in 5% CO2. Medium and supplements were obtained from Invitrogen. For the assay, 5x10^5 cells were plated per well in 96well plates in 100µl per well minimum essential medium (same composition as above) incubated at 37°C in 5% CO2. The following day the cells were >90% confluence. Compounds were prediluted in MEM and added at different concentrations to the cells with the final DMSO vehicle concentration not exceeding 0.1%. Cells were incubated for additional 16 hours before firefly luciferase activity was measured. All experiments were done in triplicates.

[1] = target: T2, FXR ligand binding domain (Homo sapiens, UniProt Q96RI1); experiment: Mammalian one hybrid (M1H) assay, Gal4 promoter driven transactivation in HEK293 cells; format: cell-based; conditions: Gal4-FXR LBD, 16 hours incubation, dual luciferase, read-out: M1H assay EC50 (±sd)
T2 construct: expressed in transfected cells; host or cells: HEK293 (DSMZ), transient transfection, vector pCMV-BD
T2 sequence (Q96RI1 187-472 isoform Q96RI1-2): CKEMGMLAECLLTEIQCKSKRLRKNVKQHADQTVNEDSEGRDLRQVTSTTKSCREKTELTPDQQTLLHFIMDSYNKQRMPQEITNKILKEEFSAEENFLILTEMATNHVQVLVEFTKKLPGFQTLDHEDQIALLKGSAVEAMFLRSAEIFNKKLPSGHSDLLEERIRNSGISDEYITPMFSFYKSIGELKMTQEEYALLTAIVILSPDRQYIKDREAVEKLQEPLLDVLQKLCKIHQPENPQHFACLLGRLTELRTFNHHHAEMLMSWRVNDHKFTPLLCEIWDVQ
Experimental: Determination of a ligand mediated Gal4 promoter driven transactivation to quantify ligand binding mediated activation of FXR was performed as follows: The cDNA part encoding the FXR ligand binding domain was cloned into vector pCMV-BD (Stratagene) as a fusion to the yeast GAL4 DNA binding domain under the control of the CMV promoter. The amino acid boundaries of the ligand binding domain were amino acids 187-472 of Database entry NM_005123 (RefSeq). The plasmid pFR-Luc (Stratagene) was used as the reporter plasmid, containing a synthetic promoter with five tandem repeats of the yeast GAL4 binding sites, driving the expression of the Photinus pyralis (American firefly) luciferase gene as the reporter gene. In order to improve experimental accuracy the plasmid pRL-CMV (Promega) was cotransfected. pRL-CMV contains the constitutive CMV promoter, controlling the expression of the Renilla reniformis luciferase. All Gal4 reporter gene assays were done in HEK293 cells (obtained from DSMZ, Braunschweig, Germany) grown in MEM with L-Glutamine and Earle's BSS supplemented with 10% fetal bovine serum, 0.1 mM nonessential amino acids, 1mM sodium pyruvate, and 100units Penicilin/[…] per ml at 37°C in 5% CO2. Medium and supplements were obtained from Invitrogen. For the assay, 5x10^5 cells were plated per well in 96well plates in 100µl per well MEM without Phenol Red and L-Glutamine and with Earle's BSS supplemented with 10% charcoal/dextran treated FBS (HyClone, South Logan, Utah), 0.1 mM nonessential amino acids, 2 mM glutamine, 1 mM sodium pyruvate, and 100 units Penicilin/[…] per ml, incubated at 37 °C in 5% CO2. The following day the cells were >90% confluence. Medium was removed and cells were transiently transfected using 20µl per well of a OptiMEM - polyethylene-imine-based transfection-reagent (OptiMEM, Invitrogen; Polyethyleneimine, Aldrich Cat No. 40,827-7) including the three plasmids described above. MEM with the same composition as used for plating cells was added 2-4 hours after addition of transfection mixture. Then compound stocks, prediluted in MEM were added (final vehicle concentration not exceeding 0.1 %). Cells were incubated for additional 16 hours before firefly and renilla luciferase activities were measured sequentially in the same cell extract using a Dual-Light-Luciferase-Assay system (Dyer et al., Anal Biochem 2000, (282), 158-161). All experiments were done in triplicates.

[2] = target: T3, human FXR alpha ligand binding domain (Homo sapiens, UniProt Q96RI1); experiment: FRET activity assay (ligand mediated FXR-LBD / SRC-1 cofactor peptide interaction, LANCE); format: biochemical
T3 construct: made in house; host or cells: E. coli BL21(DE3), vector pDEST15
T3 sequence (Q96RI1 187-472 isoform Q96RI1-2): T2 sequence (Q96RI1 187-472 isoform Q96RI1-2)
Experimental: Determination of a ligand mediated cofactor peptide interaction to quantify ligand binding to the nuclear receptor FXR was performed as follows: Preparation of human FXR alpha ligand binding domain: The human FXRalpha LBD was expressed in E. coli strain BL21(DE3) as an N-terminally GST tagged fusion protein. The DNA encoding the FXR ligand binding domain was cloned into vector pDEST15 (Invitrogen). Expression was under control of an IPTG inducible T7 promoter. The amino acid boundaries of the ligand binding domain were amino acids 187-472 of Database entry NM_005123 (RefSeq). Expression and purification of the FXR-LBD:
An overnight preculture of a transformed E.coli strain was diluted 1:20 in LB-Ampicillin medium and grown at 30°C to an optical density of OD600=0.4-0.6. Gene expression was then induced by addition of 0.5 mM IPTG. Cells were incubated an additional 6h at 30°C, 180 rpm. Cells were collected by centrifugation (7000 x g, 7 min, room temperature). Per liter of original cell culture, cells were resuspended in 10 ml lysis buffer (50 mM Glucose, 50 mM Tris pH 7.9, 1 mM EDTA and 4 mg/ml lysozyme) and left on ice for 30 min. Cells were then subjected to sonication and cell debris removed via centrifugation (22000 x g, 30 min, 4°C). Per 10 ml of supernatant 0.5 ml prewashed Glutathione 4B sepharose slurry (Qiagen) was added and the suspension kept slowly rotating for 1 h at 4°C. Glutathione 4B sepharose beads were pelleted by centrifugation (2000 g, 15 sec, 4°C) and washed twice in wash buffer (25 mM Tris, 50mM KCl, 4 mM MgCl2 and 1M NaCl). The pellet was resuspended in 3 ml elution buffer per liter of original culture (elution buffer: 20 mM Tris, 60 mM KCI, 5 mM MgCl2 and 80 mM glutathione added immediately prior to use as powder). The suspension was left rotating for 15 min at 4°C, the beads pelleted and eluted again with half the volume of elution buffer than the first time. The eluates were pooled and dialysed overnight in 20 mM Hepes buffer (pH 7.5) containing 60 mM KCI, 5 mM MgCl2 as well as 1 mM dithiothreitol and 10% (v/v) glycerol. The protein was analysed by SDS-Page.
The method measures the ability of putative ligands to modulate the interaction between the purified bacterial expressed FXR ligand binding domain (LBD) and a synthetic biotinylated peptide based on residues 676-700 of SRC-1 (LCD2, 676-700). The sequence of the peptide used was B-[…]-COOH where the N-terminus was biotinylated (B). The ligand binding domain (LBD) of FXR was expressed as fusion protein with GST in BL-21 cells using the vector pDEST15. Cells were lysed by sonication, and the fusion proteins purified over glutathione sepharose (Pharmacia) according to the manufacturers instructions. […] For ease of handling and reduction of background from compound fluorescence LANCE technology makes use of generic fluorophore labels and time resolved detection Assays were done in a final volume of 2 5µl in a 384 well plate, in a Tris-based buffer (20 mM Tris-HCl pH 7,5; 60 mM KCI, 5 mM MgCl2; 35 ng/µl BSA), containing 20-60 ng/well recombinantly expressed FXR-LBD fused to GST, 200-600 nM N-terminally biotinylated peptide, representing SRC1 aminoacids 676-700, 200 ng/well Streptavidin-xIAPC conjugate(Prozyme) and 6-10 ng/well Eu W1024 - antiGST (Perkin Elmer). […] The LANCE signal was detected by a Perkin Elmer VICTOR2VTM Multilabel Counter The results were visualized by plotting the ratio between the emitted light at 665 nm and 615 nm. […]

[3] = 16 hours incubation, firefly luciferase, read-out: DR assay EC50 (±sd)
[4] = GST-tagged FXR-LBD, biotinylated SRC-1 peptide 676-700; read-out: FRET assay EC50 (±sd)

| SMILES | EC50 (full length human FXR; [3]) [nM] | EC50 [1] [nM] | EC50 [2, 4] [nM] | EC50 (full length human FXR; read-out: DR assay EC50 (±sd), 16 hours incubation, firefly luciferase) [nM] | EC50 ([2]; read-out: FRET assay EC50 (±sd); GST-tagged FXR-LBD, biotinylated SRC-1 peptide 676-700) [nM] |
| --- | --- | --- | --- | --- | --- |
| Cc1cc(CN(C)c2ccc(OCc3c(-c4c(Cl)cccc4Cl)noc3C3CC3)nc2C(F)(F)F)ccc1C(=O)O [Example 2, 4-{[(6-((5-Cyclopropyl-3-(2,6-dichlorophenyl)isoxazol-4-yl)methoxy)-2-(trifluoromethyl)pyridin-3-yl)(methyl)amino]methyl}-2-methylbenzoic acid] | 6 | 40 | 7.7 |  |  |
| CN(Cc1ccc(C(=O)O)cc1)c1ccc(OCc2c(-c3c(Cl)cccc3Cl)noc2C2CC2)nc1C(F)(F)F [Example 1, 4-{[(6-((5-Cyclopropyl-3-(2,6-dichlorophenyl)isoxazol-4-yl)methoxy)-2-(trifluoromethyl)pyridin-3-yl)(methyl)amino]methyl}benzoic acid] |  | 56 |  | 6.4 | 8.4 |
| CC(C)c1onc(-c2c(Cl)cccc2Cl)c1COc1ccc(N(C)Cc2cccc(C(=O)O)c2)c(C(F)(F)F)n1 [Compound C, 3-(((6-((3-(2,6-Dichlorophenyl)-5-isopropylisoxazol-4-yl)methoxy)-2-(trifluoromethyl)pyridin-3-yl)(methyl)amino)methyl)benzoic acid, reference compound] | 5.7 | 186 | 11 |  |  |
| CC(C)c1onc(-c2c(Cl)cccc2Cl)c1COc1ccc(N(C)Cc2ccc(C(=O)O)cc2)c(C(F)(F)F)n1 [Compound B, 4-(((6-((3-(2,6-Dichlorophenyl)-5-isopropylisoxazol-4-yl)methoxy)-2-(trifluoromethyl)pyridin-3-yl)(methyl)amino)methyl)benzoic acid, reference compound] | 13 | 95 | 17 |  |  |
| Cc1cc(CN(C)c2ccc(OCc3c(-c4c(Cl)cccc4Cl)noc3C3CC3)nc2C(F)(F)F)cc(C)c1C(=O)O [Example 3, 4-{[(6-((5-Cyclopropyl-3-(2,6-dichlorophenyl)isoxazol-4-yl)methoxy)-2-(trifluoromethyl)pyridin-3-yl)(methyl)amino]methyl}-2,6-dimethylbenzoic acid] | 6 | 55 | 11.5 |  |  |
